Measurements as given in patent US6531156B1, “Aqueous solven encapsulation method, apparatus and microcapsules” (Temple University, priority 1994, dated 2003).
Read-outs that look alike come from different tables or passages of the source.

Tests used:
[1] = pH response and retention of bromphenol blue in octadecylamine carboxymethylcellulose microcapsules; format: physicochemical; conditions: for colour of microcapsules in acid medium: rehydrated and wet stored microcapsules
Method: Step 1: A 100 milligram sample of bromphenol blue (Fisher Scientific Co.) was dissolved in 25 milliliters of a 0.1% solution of sodium carboxymethylcellulose (medium viscosity, Ruger Chemical Co.) and the resulting solution was slowly pumped (approximately 1 milliliter per minute) through a capillary drawn to a fine tip (0.1 millimeter o.d.). The emerging droplets were allowed to fall a distance of about 1 centimeter into a slowly stirred 0.1% aqueous solution of octadecylamine (Aldrich Chemical Co.) solubilized as the acetate at pH 7.0.
Step 2: The resulting approximately 1.5 millimeter diameter microcapsules were stirred for an additional hour and separated with the aid of fine netting. The microcapsules were washed with two 100 milliliter volumes of water. About half the microcapsules were stored wet and refrigerated until used. The other half of the microcapsules were lyophilized and stored dry until used.
Step 3: A few dozen of the lyophilized microcapsules were rehydrated in a few milliliters of water for an hour and were used in parallel with the wet stored microcapsules to test their sensitivity to pH. Dilutions of hydrochloric acid were made to provide solutions with pH values of 2, 3, and 4. To these hydrochloric acid solutions, a few rehydrated and a few wet stored microcapsules were added one at a time.

[2] = spermine alginate microcapsules, 5 water washes, absorbance after dissolving microcapsules with sodium chloride
[3] = test system: bovine rotavirus strain WC3; conditions: WC3 stock diluted 1:50 in 0.05N sodium salt of polymer or 0.05M amine salt, pH 7.0, versus 0.9% NaCl

## O=S1(=O)OC(c2cc(Br)c(O)c(Br)c2)(c2cc(Br)c(O)c(Br)c2)c2ccccc21 [bromphenol blue]
[1]; octadecylamine carboxymethylcellulose microcapsules, rehydrated and wet stored
  diffusion of encapsulated indicator out of the microcapsule: did not diffuse out of it
[1]; pH 3 solution
  colour of microcapsules in acid medium: changed to yellow within a few minutes
[1]; pH 4 medium
  colour of microcapsules in acid medium: remained blue

## O=c1[nH]cc(F)c(=O)[nH]1 [fluorouracil, Fluorouracil]
[2]
  initial amount of core material retained in the microcapsules during the repeated washings: more than half

## NCCCNCCCCNCCCN [spermine]
[3]
  reduction in rotavirus infectivity: Essentially no effect
[3]; listed as spermine hydrochloride
  reduction in rotavirus infectivity: neither sodium alginate nor spermine hydrochloride reduced rotavirus infectivity

## CCCCCCCCCCCCN [dodecylamine]
[3]
  reduction in rotavirus infectivity: complete ablation

## CN(C)c1ccc2nc3ccc(=[N+](C)C)cc-3sc2c1 [methylene blue]
[3]
  reduction in rotavirus infectivity: Essentially no effect

## C1CNCCN1 [piperazine]
[3]
  reduction in rotavirus infectivity: 30 fold
